Results on 29 compounds are retold here after patent US6579881B2 (Eisai Co., Ltd., priority 1997, dated 2003).

pKi: −log10 of the molar value. Where only a bound is given, the exact number is not on record here.

For one test, the target named is T1, serotonin 1A receptor (Rattus norvegicus, UniProt P19327).
T1 construct: To the receptor fraction of the hippocampus were added a test compound and 0.5 nM of [^3H]; 8-hydroxy-dipropylaminotetralin; from tissue; host or cells: SD rat hippocampus, membrane (receptor) fraction
T1 sequence (P19327 1-422): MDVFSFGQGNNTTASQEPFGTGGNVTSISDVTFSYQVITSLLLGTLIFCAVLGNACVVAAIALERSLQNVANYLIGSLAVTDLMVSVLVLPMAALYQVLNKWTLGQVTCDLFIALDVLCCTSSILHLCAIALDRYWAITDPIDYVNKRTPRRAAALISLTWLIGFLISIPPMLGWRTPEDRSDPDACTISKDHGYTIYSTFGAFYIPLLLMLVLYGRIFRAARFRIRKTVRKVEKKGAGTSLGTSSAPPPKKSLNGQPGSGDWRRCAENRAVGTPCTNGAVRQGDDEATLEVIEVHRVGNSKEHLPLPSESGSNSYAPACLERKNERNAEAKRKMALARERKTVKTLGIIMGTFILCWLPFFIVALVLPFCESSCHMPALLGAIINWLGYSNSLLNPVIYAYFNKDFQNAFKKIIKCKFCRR
The test can be described thus: Binding test on [3H] 8-hydroxy-dipropylaminotetralin (serotonin 1A receptor). As to conditions: [3H] 8-OH-DPAT 0.5 nM, receptor fraction of rat hippocampus; read-out: 5HT1a.

The next test concerns the target serotonin 2 receptor (Rattus norvegicus, UniProt P14842). The test is described as follows: Binding test on [3H] ketanserin (serotonin 2 receptor). As to conditions: [3H] ketanserin 0.3 nM, receptor fraction of rat cerebral cortex; read-out: 5HT2.

serotonin 2 receptor, sequence (P14842 whole entry): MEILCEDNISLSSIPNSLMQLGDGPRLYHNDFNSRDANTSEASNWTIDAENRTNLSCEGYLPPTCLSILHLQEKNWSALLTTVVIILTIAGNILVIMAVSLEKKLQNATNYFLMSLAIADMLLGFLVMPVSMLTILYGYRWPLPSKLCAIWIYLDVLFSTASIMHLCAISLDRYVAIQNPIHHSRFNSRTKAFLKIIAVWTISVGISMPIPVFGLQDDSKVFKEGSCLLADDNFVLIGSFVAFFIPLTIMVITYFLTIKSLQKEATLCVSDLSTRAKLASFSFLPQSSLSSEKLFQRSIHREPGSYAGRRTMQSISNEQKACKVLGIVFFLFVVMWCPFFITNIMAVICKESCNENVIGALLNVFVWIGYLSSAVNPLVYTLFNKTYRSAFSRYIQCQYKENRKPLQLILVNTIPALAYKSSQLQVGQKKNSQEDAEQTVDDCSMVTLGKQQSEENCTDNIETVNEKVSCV
Protocol for serotonin 1A receptor: 3) [^3H] 8-Hydroxy-dipropylaminotetralin (8-OH-DPAT).
Use was made of SD rats aged 6 to 8 weeks.
The rats were sacrificed by dcapitation to extirpate the cerebra.
Each mixture was homogenized by using a Teflon glass homogenizer and centrifuged at 1,000×g for 10 min. The supernatant thus obtained was further centrifuged at 20,000×g for 20 min. The obtained precipitate was re-suspended in 50 times (based on the intial wet weight; in the case of the hippocampus) or 10 times (in the case of the cortex) as much a 50 mM Tris hydrochloride (pH 7.4) and incubated at room temperature for 30 min. After centrifuging at 20,000×g for 20 min, the obtained precipitate was further suspended and centrifuged twice each in the same manner. The precipitate thus obtained was suspended in 100 times (based on the initial wet weight; in the case of the hippocampus) or 20 times (in the case of the cortex) as much a 50 mM Tris hydrochloride solution (pH 7.4) to thereby give a receptor fraction. This receptor fraction was stored at −80° C. until using.
(Binding Test on [^3H] 8-hydroxy-dipropylaminotetralin)
To the receptor fraction of the hippocampus were added a test compound and 0.5 nM of [^3H] 8-hydroxy-dipropylaminotetralin and the resultant mixture was incubated at room temperature for 30 min. Next, it was filtered through a glass filter with the use of a cell harvester. After washing the glass filter with 50 mM Tris hydrochloride (pH 7.4), the radioactivity of the receptor was measured with a liquid scintillation counter. The binding detected in the presence of 10 μM of serotonin binoxalate was referred to as the nonspecific binding.
IC50 was calculated by the probit method, while Ki was determined in accordance with the following formula:
wherein c represents the concentration of the radioisotope-labeled compound, and Kd represents the dissociation constant of the radioisotope-labeled compound with respect to the receptor determined by Scatchard's analysis.

Regarding `OCCOc1ccc2c(c1)CCCC2C1CCN(CCc2ccc(F)cc2)CC1` (stereo not shown) [Example 278, 1-[2-(4-fluorophenyl)ethyl]-4-[6-(2-hydroxy)ethoxy-1,2,3,4-tetrahydronaphthalen-1-yl]piperidine], the pKi at serotonin 1A receptor was under 6.70; at serotonin 2 receptor, 8.41.

Regarding `O=C(NCc1ccc2c(c1)N(C1CCN(CCc3ccc(F)cc3)CC1)CC2)C1CC1` [Example 159, 1-[1-(4-fluorophenethyl)piperidin-4-yl]-6-cyclopropanecarboxamindomethylindoline], the figures for the pKi at serotonin 1A receptor and on serotonin 2 receptor were 8.25 and 9.12, respectively.

On to `c1ccc2c(c1)CCN2C1CCN(CCc2ccc3c(c2)OCO3)CC1` [Example 46, 1-{1-[3,4-(methylenedioxy)phenethyl]piperidin-4-yl}indoline], for which the values for the pKi at serotonin 1A receptor and at serotonin 2 receptor were 8.96 and 8.38, respectively.

As to `CC(=O)Nc1ccc2c(c1)N(C1CCN(CCc3ccc(F)cc3F)CC1)CC2` [Example 222, 1-[1-(2,4-difluorophenethyl)piperidin-4-yl]-6-acetamidoindoline], the pKi at serotonin 1A receptor was 10.40; on serotonin 2 receptor, 7.74.

For the compound `Brc1cnn(CCN2CCC(N3CCc4ccccc43)CC2)c1` [Example 68, 1-{1-[2-(4-bromopyrazol-1-yl)ethyl]piperidin-4-yl}indoline], the figures for the pKi on serotonin 1A receptor and on serotonin 2 receptor were 7.33 and 7.40, respectively.

For `O=C(CCl)NCc1ccc(CCN2CCC(N3CCc4ccccc43)CC2)cc1` [Example 37, 1-[1-(4-chloroacetamidomethylphenethyl)piperidin-4-yl]indoline], the pKi is 8.34 on serotonin 1A receptor and 7.83 at serotonin 2 receptor.

With `COc1ccc2c(c1)N(C1CCN(CCc3ccc4ncsc4c3)CC1)CC2` [Example 233, 1-{1-[2-(6-benzothiazolyl)ethyl]-piperidin-4-yl}-6-methoxyindoline], the pKi on serotonin 1A receptor is 9.22; at serotonin 2 receptor, under 6.70.

For `Fc1ccc(CCN2CCC(N3CCc4ccc(Cc5ccncc5)cc43)CC2)cc1` [Example 179, 1-[1-(4-fluorophenethyl)piperidin-4-yl]-6-(4-pyridylmethyl)indoline], the pKi is 9.77 at serotonin 1A receptor and 9.39 on serotonin 2 receptor.

For the compound `OC(c1cccnc1)c1ccc2c(c1)N(C1CCN(CCc3ccc(F)cc3)CC1)CC2` (stereo not shown) [Example 176, 1-[1-(4-fluorophenethyl)piperidin-4-yl]-6-[1-hydroxy-1-(3-pyridyl)methyl]indoline], the pKi at serotonin 1A receptor is 8.78; at serotonin 2 receptor, 10.30.

For the compound `CCN1CC[C@H](N2CCc3ccccc32)[C@@H](COCc2ccc(F)cc2)C1` (relative stereo) [Example 85, trans-1-[1-ethyl-3-(4-fluorobenzyloxymethyl)piperidin-4-yl]indoline], the figures for the pKi on serotonin 1A receptor and at serotonin 2 receptor were 6.77 and 7.25, respectively.

Regarding `OCc1ccc(CCN2CCC(N3CCc4ccccc43)CC2)cc1` [Example 23, 1-[1-(4-hydroxymethylphenethyl)piperidin-4-yl]indoline], the pKi is 8.13 on serotonin 1A receptor and 7.84 at serotonin 2 receptor.

`O=C1CSC(=O)N1Cc1ccc2c(c1)N(C1CCN(CCc3ccc(F)cc3)CC1)CC2` [Example 209, 1-[1-(4-fluorophenethyl)piperidin-4-yl]-6-(2,4-thiazolidinedion-3-yl)methylindoline]: the pKi on serotonin 1A receptor is 8.16; on serotonin 2 receptor, 8.33.

Take `CCN1CCC(N2CC(c3ccc(OC)cc3)c3ccccc32)CC1` (stereo not shown) [Example 241, 1-(1-ethylpiperidin-4-yl)-3-(4-methoxyphenyl)indoline]: the pKi was 6.44 on serotonin 1A receptor and 5.78 on serotonin 2 receptor.

Consider `CCC(=O)NCc1ccc(CCN2CCC(N3CCc4ccccc43)CC2)cc1` [Example 39], for which the pKi on serotonin 1A receptor was 8.80; on serotonin 2 receptor, 8.05.

Regarding `CS(=O)(=O)Nc1cc2c(cc1Cl)CCN2C1CCN(CCc2ccc(F)cc2)CC1` [Example 218, 1-[1-(4-fluorophenethyl)piperidin-4-yl]-5-chloro-6-methanesulfonylaminoindoline], the values for the pKi on serotonin 1A receptor and on serotonin 2 receptor were 8.35 and 7.93, respectively.

As for `CCN1CCC(N2CC(c3ccc(F)cc3)c3ccccc32)CC1` (stereo not shown) [Example 240, 1-(1-ethylpiperidin-4-yl)-3-(4-fluorophenyl)indoline], the pKi at serotonin 1A receptor is under 6.70; on serotonin 2 receptor, 7.56.

Take `Fc1ccccc1CCN1CCC(N2CCc3ccccc32)CC1` [Example 7, 1-[1-(2-fluorophenethyl)piperidin-4-yl]indoline]: the pKi on serotonin 1A receptor is 7.46; on serotonin 2 receptor, 7.89.

Turning to `Cn1cccc1-c1ccc2ccn(C3CCN(CCc4ccc(F)cc4)CC3)c2c1` [Example 287, 1-[1-(4-fluorophenethyl)piperidin-4-yl]-6-(1-methylpyrrol-2-yl)indole], the figures for the pKi on serotonin 1A receptor and at serotonin 2 receptor were 10.00 and under 6.70, respectively.

Consider `NCc1ccc2c(c1)N(C1CCN(CCc3ccc(F)cc3)CC1)CC2` [Example 132, 1-[1-(4-fluorophenethyl)piperidin-4-yl]-6-aminomethylindoline], for which the values for the pKi at serotonin 1A receptor and at serotonin 2 receptor were 8.68 and 7.85, respectively.

Regarding `OCc1ccc(OCCCN2CCC(N3CCc4ccccc43)CC2)cc1` [Example 70, 1-{1-[3-(4-hydroxymethylphenoxy)propyl]piperidin-4-yl}indoline], the pKi at serotonin 1A receptor was 7.38; on serotonin 2 receptor, 7.56.

Consider `N#Cc1ncc(CCN2CCC(N3CCc4ccccc43)CC2)s1` [Example 66], for which the results for the pKi at serotonin 1A receptor and on serotonin 2 receptor were 7.29 and 7.07, respectively.

For `OC(c1ccncc1)c1ccc2c(c1)N(C1CCN(CCc3ccc(F)cc3)CC1)CC2` (stereo not shown) [Example 178], the figures for the pKi on serotonin 1A receptor and on serotonin 2 receptor were 7.99 and 8.60, respectively.

As to `Fc1ccc(CCN2CCC(=C3CCc4cccnc43)CC2)cc1` [Example 256, 7-[1-(4-fluorophenethyl)piperidin-4-ylidene]-5,6-dihydropyrindine], the values for the pKi on serotonin 1A receptor and at serotonin 2 receptor were 9.40 and 7.92, respectively.

With `O=C1CCCN1Cc1ccc2c(c1)N(C1CCN(CCc3ccc(F)cc3)CC1)CC2` [Example 202, 1-[1-(4-fluorophenethyl)piperidin-4-yl]-6-(2-pyrrolidon-1-yl)methylindoline], the pKi at serotonin 1A receptor is 8.59; at serotonin 2 receptor, 8.29.

Take `CCN1CCC(N2CCc3ccc(NS(=O)(=O)c4ccc(F)cc4)cc32)CC1` [Example 238, 1-(1-ethylpiperidin-4-yl)-6-(4-fluorobenzenesulfonylamino)indoline]: the pKi was 7.06 on serotonin 1A receptor and under 6.70 at serotonin 2 receptor.

For `c1ccc2c(c1)CCN2C1CCN(CCc2ccncc2)CC1` [Example 49, 1-{1-[2-(4-pyridyl)ethyl]piperidin-4-yl}indoline], the pKi at serotonin 1A receptor was 7.26; on serotonin 2 receptor it was 7.52.

`CCCNC(=O)Cc1ccc2c(c1)N(C1CCN(CCc3ccc(F)cc3)CC1)CC2` [Example 150, 1-[1-(4-fluorophenethyl)piperidin-4-yl]-6-(n-propylcarbamoylmethyl)indoline]: the pKi at serotonin 1A receptor is 7.89; on serotonin 2 receptor, 9.80.

With `Fc1ccc(N2CCC(N3CCc4ccccc43)CC2)cc1` [Example 1, 1-[1-(4-fluorophenyl)piperidin-4-yl]indoline], the pKi on serotonin 1A receptor was 6.20; at serotonin 2 receptor, under 6.70.

As for `CNc1ccc2c(c1)N(C1CCN(CCc3ccc(F)cc3)CC1)CC2` [Example 111, 1-[1-(4-fluorophenethyl)piperidin-4-yl]-6-methylaminoindoline], the values for the pKi on serotonin 1A receptor and on serotonin 2 receptor were 8.26 and 7.13, respectively.
